Experimental data reported in patent US20250333440A1, “Azole Tripeptides as Vasodilators” (University of Kansas, priority 2024, published 2025).

Key:
[1] = tested on: chicken embryos exposed to CoCl2; assay: rescue of embryos administered a 100-fold lethal dose of hypoxia-inducing CoCl2; format: in vivo; conditions: CoCl2 1 M; 2.4 g/kg on Day 6
blood vessels in the CAM [2] = assay: chick chorioallantoic membrane assay (CAM), vasculature analysed with NIH ImageJ; format: in vivo, Brown Leghorn chicken embryos; conditions: for effect on branching compared to DMSO control / effect on vascular density (VD) compared to DMSO control / effect on vessel diameter compared to DMSO control / effect on vessel length density (VLD) compared to DMSO control: 24 h after administration
Experimental: (§1) At day 2, the egg was carefully cleaned with isopropanol again and a small opening was carved near its air sac through which approximately 3 mL of albumin was removed. The opening was sealed with medical tape and a larger square opening of approximately 1×1 cm was carved near the center of the egg using a Dremer Stylo+ tool. The egg was further cleaned in order to remove debris and the eggshell membrane was carefully removed using sterilized tweezers. The opening was sealed using clear tape and the eggs were incubated for four more days under the same conditions after disabling the auto-turning mechanism of the incubator.
(§2) The tape covering the opening in the egg was carefully removed and the disc was carefully placed on top of the chorioallantoic membrane (e.g., CAM) using sterilized tweezers, then the opening was resealed, and the eggs were placed again in the incubator.
(§3) The paper disc was carefully removed, and the CAM was photographed. For the Miles assay approximately 100 μl of a 1% w/v solution of Evans Blue dye was injected in the CAM and infiltration of the dye into the blood vessels was analyzed using an Andonstar digital microscope equipped with a 60× magnification lens. If the dye infiltrated the blood vessels the test was considered positive. The photographs were later cropped to include only the CAM and analyzed using the NIH ImageJ software package as follows.
To analyze the extent of branching the blood vessels were carefully traced in order for the ImageJ software to be able to distinguish them for the background. The traced images were opened on the ImageJ software, converted into an 8 bit image and the threshold was adjusted to exclude any possible background signal. This process gave a binary (black and white) map of the vasculature which was then skeletonized (converted into a 1 pixel wide map) and the skeleton was analyzed to determine the number of branches and junction voxels (pixels connected to more than 2 other pixels, i.e. pixels in which the map divides).
To analyze the vascular length density and vascular density the cropped image was opened on the ImageJ software, and the Mexican Hat filter plugin was applied using a radius of 5.0. After this, the image was made binary and the Vascular Density function of the Vessel Analysis plugin was used to determine both parameters after carefully tracing the image so that only the CAM area was included on the calculation.
To analyze the vessel the cropped image was opened on the ImageJ software, and the Mexican Hat filter plugin was applied using a radius of 5.0.

blood vessels in the CAM [3] = assay: Miles assay (Evans Blue) / vascular permeability in the CAM; set-up: species or system Brown Leghorn chicken embryos; conditions: in vivo
Experimental: as §3, with “After 24 hours, the tape was removed, and the opening was further expanded until all the possible area of the CAM was exposed. The paper” for “The paper”

chicken embryos = format: in vivo, Brown Leghorn chicken embryos; set-up: embryo survival: unit of the concentration uncertain; conditions: for embryo survival: 40 (unit uncertain) dose; for embryo survival / embryos that survived: 24 h; for embryos that survived: 40 μM dose
Experimental: as §1, §2
The protocol included DMSO as a negative control and Razuprotafib as a positive control. The protocol also included the heptapeptide NLLMAAS as a negative control, which is an orthosteric antagonist of ANG-1.

[4] = single dose 40 μM (0.91 mg/kg) on Day 6, 24 h post dose

## COC(=O)[C@H](Cn1cncn1)NC(=O)[C@H](Cn1nnnc1C)NC(=O)[C@H](Cn1nnc2ccccc21)NC(=O)C(F)(F)F [Compound 1, methyl (S)-2-((S)-2-((S)-3-(1H-benzo[d][1,2,3]triazol-1-yl)-2-(2,2,2-trifluoroacetamido)propanamido)-3-(5-methyl-1H-tetrazol-1-yl)propanamido)-3-(1H-1,2,4-triazol-1-yl)propanoate]
[1]
  embryos rescued from a 100-fold lethal dose of CoCl2: 25%
Blood vessels in the CAM [2]; 40 μM
  aberrant angiogenesis or vascular remodeling (vessel density/branching mapping): did not induce
Blood vessels in the CAM [2]; CAM
  time for which activity comparable to FDA approved vasodilators at 10 minutes was maintained: 24 h
Blood vessels in the CAM [2]; [4]
  decrease in vessel length density (VLD) compared with DMSO control: 17%
  increase in vessel diameter compared with DMSO control: 124%
Blood vessels in the CAM [2]; single dose 40 μM (0.91 mg/kg) on Day 6, 24 h post dose, listed as Compound 2
  decrease in vessel length density (VLD) compared with DMSO control: 17%
Blood vessels in the CAM [3]
  integrity of vessel cell walls (Miles assay): did not weaken
  vascular permeability: did not increase permeability
Chicken embryos
  embryo survival: almost all embryos
Chicken embryos; single (Day 6) dosing at 40 μM
  indications of hazardous tumor growth or teratogenic effects: no indications
  mortality rates: not statistically significant

## COC(=O)N[C@@H](Cc1ccccc1)C(=O)N[C@@H](Cc1ccc(NS(=O)(=O)O)cc1)c1csc(-c2cccs2)n1 [Razuprotafib]
Blood vessels in the CAM [2]; 40 μM
  effect on branching compared to DMSO control: no changes were observed
  effect on vascular density (VD) compared to DMSO control: no changes were observed
  effect on vessel diameter compared to DMSO control: no changes were observed
  effect on vessel length density (VLD) compared to DMSO control: no changes were observed
Chicken embryos
  embryo survival: almost all embryos

## CCOC(=O)C1=C(COCCN)NC(C)=C(C(=O)OC)C1c1ccccc1Cl (centres unmarked) [amlodipine]
Chicken embryos
  embryos that survived: Two out of three

## O=[N+]([O-])O[C@@H]1CO[C@H]2[C@@H]1OC[C@@H]2O [isosorbide, isosorbide mononitrate]
Blood vessels in the CAM [2]; 40 μM
  effect on vascular density (VD) compared to DMSO control: did not observe effects
  effect on vessel diameter compared to DMSO control: did not observe effects
  effect on vessel length density (VLD) compared to DMSO control: did not observe effects
Chicken embryos
  embryos that survived: Two out of three

## NLLMAAS [heptapeptide NLLMAAS, an orthosteric antagonist of ANG-1 (antiangiogenic), negative control]
Blood vessels in the CAM [2]; 40 mM (1075 mg/Kg)
  effect on branching compared to DMSO control: did not have any effects
  effect on vascular density (VD) compared to DMSO control: did not have any effects
  effect on vessel diameter compared to DMSO control: did not have any effects
  effect on vessel length density (VLD) compared to DMSO control: did not have any effects

B1: ANG-1 protein: ANG-1 protein (Gibco) (protein, UniProt Q15389 16-498, looked up)
Angiopoietin-1: HIGCSNQRRSPENSGRRYNRIQHGQCAYTFILPEHDGNCRESTTDQYNTNALQRDAPHVEPDFSSQKLQHLEHVMENYTQWLQKLENYIVENMKSEMAQIQQNAVQNHTATMLEIGTSLLSQTAEQTRKLTDVETQVLNQTSRLEIQLLENSLSTYKLEKQLLQQTNEILKIHEKNSLLEHKILEMEGKHKEELDTLKEEKENLQGLVTRQTYIIQELEKQLNRATTNNSVLQKQQLELMDTVHNLVNLCTKEGVLLKGGKREEEKPFRDCADVYQAGFNKSGIYTIYINNMPEPKKVFCNMDVNGGGWTVIQHREDGSLDFQRGWKEYKMGFGNPSGEYWLGNEFIFAITSQRQYMLRIELMDWEGNRAYSQYDRFHIGNEKQNYRLYLKGHTGTAGKQSSLILHGADFSTKDADNDNCMCKCALMLTGGWWFDACGPSNLNGMFYTAGQNHGKLNGIKWHYFKGPSYSLRSTTMMIRPLDF
Blood vessels in the CAM [2]; 0.75 mg/Kg (proteins 18.87 μM, antibody 1 mg/mL)
  effects on CAM vasculature (vessel diameter, vessel length density) compared to DMSO controls: did not produce any effects significantly different
